This note sets out measurements from ChEMBL document CHEMBL2346598, “Synthesis and pharmacological characterization of 2-(acylamino)thiophene derivatives as metabolically stable, orally effective, positive allosteric modulators of the GABAB receptor” (J Med Chem, 2013).

Calls of active or inactive are those of the source. No cut-off for these calls is given here.

The species entered for data set [1] is Rattus norvegicus. As to the kind of experiment: Positive allosteric modulation of GABAB receptor in rat cortical membranes assessed as stimulation of [35S]GTPgammaS binding up to 100 uM after 30 mins by liquid scintillation counting analysis. The format is functional, cell membranes. Conditions: Membrane.
The species named for data set [2] is Rattus norvegicus. Nature of the data set: Positive allosteric modulation of GABAB receptor in rat cortical membranes assessed as potentiation of GABA-induced [35S]GTPgammaS binding after 30 mins by liquid scintillation counting analysis. Conditions: Membrane. The format is functional, cell membranes.
For data set [3], the species on record is Rattus norvegicus. As to the kind of experiment: Positive allosteric modulation of GABAB receptor in rat cortical membranes assessed as potentiation of GABA-induced [35S]GTPgammaS binding at 2.5 uM after 30 mins by liquid scintillation counting analysis relative to GABA. The format is functional, cell membranes. The conditions noted are these: Membrane.

Data set [4] is filed under the species Rattus norvegicus. As to the kind of experiment: Positive allosteric modulation of GABAB receptor in rat cortical membranes assessed as potentiation of GABA-induced [35S]GTPgammaS binding at 25 uM after 30 mins by liquid scintillation counting analysis relative to GABA. The conditions noted are these: Membrane. The format is functional, cell membranes.
Data set [5] has as its system NIH3T3. Nature of the data set: Cytotoxicity against mouse NIH/3T3 cells after 24 hrs by neutral red staining-based UV/visible spectrophotometric analysis. The format is cell-based. Conditions: NIH3T3, 24 h.
A short description of data set [6]: Ratio of compound IC50 to COR628 IC50 for mouse NIH/3T3 cells. Conditions: read-out: Ratio IC50. The format is ADME, cell-based, NIH3T3.
Data set [7] in a line: Ratio of compound IC50 to COR627 IC50 for mouse NIH/3T3 cells. The format is ADME, cell-based, NIH3T3. The conditions noted are these: read-out: Ratio IC50.

`COC(=O)c1c(NC(=O)c2ccc(OC)c(OC)c2)sc2c1CCCC2`: the outcome in data set [1] and in data set [2] was inactive. Also, the results for the Activity in data set [3] and in data set [4] were -4.1% and 9%, respectively.
As for `CCCOC(=O)c1c(NC(=O)c2ccc(C)cc2)sc(C)c1CC`, the result in data set [1] and in data set [2] was inactive.
For `CCc1c(C)sc(NC(=O)C(C)(C)C)c1C(=O)OC`, the result in data set [1] and in data set [2] was inactive.
In data set [5], `Cc1ncc(-c2ccc(C(F)(F)F)cc2)c(N[C@@H]2C[C@H]3CC[C@@H]2C3)n1` gave an IC50 of 35 µM.
As for `CCc1c(C)sc(NS(=O)(=O)c2ccccc2)c1C(=O)OC`, the result in data set [1] and in data set [2] was inactive. This compound displayed an IC50 in data set [5] of 146 µM. In addition, the values for the Activity in data set [3] and in data set [4] were 2.9% and 5.9%, respectively.
As to `CCc1c(C)sc(N(C)C(=O)c2ccc(Cl)cc2)c1C(=O)OC`, the outcome in data set [1] and in data set [2] was inactive.
For the compound `CCCOC(=O)c1c(NC(=O)c2ccc(Cl)cc2)sc(C)c1CC`, the result in data set [1] and in data set [2] was inactive.
Regarding `CCc1c(C)sc(NC(=O)c2ccccc2)c1C(=O)OC`, the result in data set [1] and in data set [2] was inactive. Further, in data set [5], the IC50 is 66 µM. For the same compound, the Activity was found to be 3.1% in data set [3] and 12% in data set [4].
On to `CCc1c(C)sc(NC(=O)c2cccc(Cl)c2)c1C(=O)OC`, for which the result in data set [1] and in data set [2] was inactive. Moreover, the Activity in data set [3] was determined as 4%; in data set [4] it was 11%.
`CCc1c(C)sc(NS(=O)(=O)C2CCCCC2)c1C(=O)OC`: the result in data set [1] and in data set [2] was inactive.
The compound `CCc1c(C)sc(NC(=O)C23CC4CC(CC(C4)C2)C3)c1C(=O)OC` returned an IC50 in data set [5] of 32 µM. The Activity worked out at 9.2% in data set [3] and 22% in data set [4].
With `COC(=O)c1ccsc1NC(=O)c1ccccc1`, the result in data set [1] and in data set [2] was inactive.
Turning to `CCc1c(C)sc(NC(=O)c2ccc([N+](=O)[O-])cc2)c1C(=O)OC`, the outcome in data set [1] and in data set [2] was inactive.
In the case of `CCc1c(C)sc(NC(=O)c2ccc(I)cc2)c1C(=O)OC`, the result in data set [1] and in data set [2] was inactive.
Consider `CCc1c(C)sc(NC(=O)c2ccc(C)cc2)c1C(=O)OC(C)(C)C`, for which the result in data set [1] and in data set [2] was inactive.
`CCc1c(C)sc(NC(=O)Oc2ccccc2)c1C(=O)OC`: the result in data set [1] and in data set [2] was inactive. Moreover, the results for the Activity in data set [3] and in data set [4] were 3.9% and 8.2%, respectively.
Consider `CCc1c(C)sc(NC(=O)c2ccc(-c3ccccc3)cc2)c1C(=O)OC`, for which the result in data set [1] and in data set [2] was inactive.
On to `CCc1c(C)sc(NC(=O)c2ccc(-c3cccnc3)cc2)c1C(=O)OC`, for which the outcome in data set [1] and in data set [2] was inactive.
For the compound `CCc1c(C)sc(NC(=O)c2ccc(Cl)cc2)c1C(=O)OC(C)(C)C`, the result in data set [1] and in data set [2] was inactive.
Regarding `CCc1c(C)sc(NC(=O)c2ccc(-c3ccc(C)cc3)cc2)c1C(=O)OC`, the result in data set [1] and in data set [2] was inactive.
Take `CCc1c(C)sc(NC(=O)c2ccc(OC)cc2)c1C(=O)OC`: the outcome in data set [1] and in data set [2] was inactive.
As for `CCc1c(C)sc(NC(C)=O)c1C(=O)OC`, the outcome in data set [1] and in data set [2] was inactive.
For the compound `CCc1c(C)sc(NC(=O)C2CCCC2)c1C(=O)OC`, the result in data set [1] and in data set [2] was inactive. The compound also showed an IC50 in data set [5] of 34 µM. Further, the Activity in data set [3] came out at 3%; in data set [4], 12.1%.
Consider `CCc1c(C)sc(NC(=O)c2ccc(Br)cc2)c1C(=O)OC`, for which the outcome in data set [1] and in data set [2] was inactive.
As to `CCc1c(C)sc(NC(=O)C2CCCCC2)c1C(=O)OC`, 33 µM corresponded to half-maximal inhibition in data set [5] (IC50). Further, the Activity came to 2% in data set [3] and 15.1% in data set [4].
Take `COC(=O)c1c(NC(=O)c2ccccc2)sc2c1CCCC2`: the outcome in data set [1] and in data set [2] was inactive.
In the case of `COC(=O)c1ccsc1NC(=O)c1ccc(Cl)cc1`, the outcome in data set [1] and in data set [2] was inactive.
As for `COc1ccc(C(=O)Nc2sc3c(c2C#N)CCCC3)cc1OC`, the outcome in data set [1] and in data set [2] was inactive.
For the compound `COC(=O)c1c(NC(=O)C2CCCCC2)sc2c1CCCC2`, the result in data set [1] and in data set [2] was inactive. The midpoint of inhibition in data set [5], the IC50, lay at 62 µM. Besides, the Activity is -5.6% in data set [3] and 12% in data set [4].
As for `CCc1c(C)sc(NC(=O)Cc2ccccc2)c1C(=O)OC`, the outcome in data set [1] and in data set [2] was inactive.
Take `CCc1c(C)sc(NC(=O)C2CC2)c1C(=O)OC`: the outcome in data set [1] and in data set [2] was inactive.
On to `N#Cc1c(NC(=O)C2CCCCC2)sc2c1CCCC2`, for which the outcome in data set [1] and in data set [2] was inactive. The selectivity ratio in data set [6] and in data set [7] was 4 each time.
Regarding `CCc1c(C)sc(NC(=O)c2ccccc2Cl)c1C(=O)OC`, the outcome in data set [1] and in data set [2] was inactive.
Regarding `CCc1c(C)sc(NS(=O)(=O)c2ccc(C)cc2)c1C(=O)OC`, the outcome in data set [1] and in data set [2] was inactive.
